# Earlier results in patent US20050175959A1, “System for the controlled delivery of an active material to a dental site” (Coll Partners Ltd., priority 2000, published 2005).
# Settings: in vivo
compound,measurement,value
F [fluoride],acute lethal dose of fluoride (F),33 mg F/Kg body weight
same,chronic toxicity,0.1 mg F/Kg
